# Experiment: Thermal decomposition by DSC
# Assay type: physicochemical
# Excerpt: Sharp threshold of thermal decomposition within the required temperature range characterizes the new pyridine N-oxide based azo dyes which are assumed to be desirable for the application in optical layers for optical data recording.
compound,measurement,setting,value
CCN1C(O)=C(/N=N/c2c(O)ccc[n+]2[O-])C=CC1=C(C#N)C#N [(12)],DSC: dec. at,DSC,260 °C
same,Dec.Pt,Table 1 summary,260 °C
